Experimental data taken from ChEMBL document CHEMBL1146507, “Antityrosinase principles and constituents of the petals of Crocus sativus” (J Nat Prod, 2004).
Values after ≈ are worked out from the molar mass of the structure shown.

What was measured:
[1] = system: Radical scavenging activity; assay: Antioxidant activity assessed as DPPH radical scavenging activity at 0.1 mg/mL; assay type: functional
[2] = biological target: T1, Tyrosinase (Agaricus bisporus, UniProt O42713)
T1 sequence (O42713 whole entry): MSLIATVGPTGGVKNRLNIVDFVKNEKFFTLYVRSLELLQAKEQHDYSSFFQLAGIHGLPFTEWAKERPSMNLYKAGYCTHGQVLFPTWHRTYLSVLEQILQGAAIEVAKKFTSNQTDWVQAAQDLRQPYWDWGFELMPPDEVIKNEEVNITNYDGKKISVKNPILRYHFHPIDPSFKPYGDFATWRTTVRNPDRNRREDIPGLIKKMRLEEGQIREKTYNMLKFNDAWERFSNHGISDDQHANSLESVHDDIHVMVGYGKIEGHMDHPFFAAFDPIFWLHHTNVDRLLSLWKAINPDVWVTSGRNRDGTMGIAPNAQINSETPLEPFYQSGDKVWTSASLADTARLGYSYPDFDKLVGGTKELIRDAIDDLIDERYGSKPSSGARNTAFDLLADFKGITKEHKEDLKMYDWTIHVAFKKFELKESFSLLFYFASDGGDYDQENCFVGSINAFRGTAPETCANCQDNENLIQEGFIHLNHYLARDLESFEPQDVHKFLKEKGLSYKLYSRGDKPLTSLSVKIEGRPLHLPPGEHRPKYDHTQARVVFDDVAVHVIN
Description: Inhibition of mushroom tyrosinase by spectrophotometry

[3] = system: Radical scavenging activity; assay: Antioxidant activity assessed as DPPH radical scavenging activity; assay type: functional

| IC50 [2] [µM] | Structure (SMILES) | Activity [1] [%] | other results |
| --- | --- | --- | --- |
| – | O=c1c(O)c(-c2ccc(O)cc2)oc2cc(O)cc(O)c12 | 86.5 | – |
| 1000 | CC1=C(CO)C(C)(C)CC(=O)C1O (configuration not stated) [CROCUSATIN L] | – | – |
| 260 | CC1=C(C=O)C(C)(C)[C@@H](O)[C@H](O)C1 [CROCUSATIN K] | – | – |
| 1100 | CC1=CC(=O)CC(C)(C)C1O (configuration not stated) | – | – |
| – | O=C(O)c1ccc(O)c(O)c1 | 89.9 | – |
| – | O=c1c(O)c(-c2ccc(O)cc2)oc2cc(O[C@@H]3O[C@H](CO)[C@@H](O)[C@H](O)[C@H]3O)cc(O)c12 | 91.2 | – |
| – | Cc1c(C)c2c(c(C)c1O)CC[C@@](C)(CCC[C@H](C)CCC[C@H](C)CCCC(C)C)O2 [ALPHA-TOCOPHEROL] | – | IC50 [3]: 150 µg/mL (≈ 348 µM) |
